Data taken from PMC5766510, “Development of a PET radioligand for potassium channels to image CNS demyelination” (Scientific Reports, 2018).
Where two headings read alike, the source gives them in different places.

How the values were obtained:
[1] = tested on: voltage-gated K^+ channels; assay: PET imaging in healthy Rhesus macaques; type: in vivo, Rhesus monkeys (macaca mulatta)
Experimental: Whole body PET/CT imaging was carried out on a Siemens mCT PET/CT. Monkeys were sedated with ketamine and intubated. Following intubation monkeys were placed in prone position on the scanner bed face forward with their head immobilized in a stereotaxic frame. The animals were then anesthetized with 1% isoflurane and kept under anesthesia throughout the whole procedure. A CT image was acquired first (approx. 5 min). After the CT, 5 mCi in 8 mL of saline of [^18F]3-F-4-AP was infused as a bolus through the cubital vein. Scans were obtained in list mode and reconstructed with a 3D ordinary Poisson OSEM algorithm as 30 frames of data (2 × 15 secs, 4 × 30 secs, 8 × 60 secs, 8 × 120 secs, 8 × 240 secs). All activities were decay-corrected to the time of injection of the radiopharmaceutical. Reconstructed images were processed using VivoQuant. ROIs for the major organs were hand drawn based on the CT and used to calculate time-activity curves.
Focused high-resolution brain imaging in Rhesus macaques: brain PET imaging was carried out on a Siemens HRRT PET scanner. Monkeys were sedated with ketamine and intubated. Following intubation monkeys were placed in prone position on the scanner bed face forward with their head immobilized in a stereotaxic frame. The animals were then anesthetized with 1% isoflurane and kept under anesthesia throughout the whole procedure. Monkeys received 5 mCi of [^18F]3-F-4-AP as a bolus through the cubital vein. Scans were obtained in list mode and reconstructed with a 3D ordinary Poisson OSEM algorithm as […] frames of data (8 × 15 secs, 8 × 30 secs, 16 × 60 secs, 16 × 120 secs, 16 × 240 secs). All activities were decay-corrected to the time of injection of the radiopharmaceutical. Reconstructed images were processed using VivoQuant. The Rhesus brain atlas from VivoQuant was fitted to the data and used to calculate time-activity curves for 43 different brain regions.

[2] = tested on: voltage-gated K^+ channels; assay: PET/CT imaging in healthy rats; type: in vivo, rat
Description: In order to evaluate the potential use of [^18F]3-F-4-AP as a PET tracer for the brain, we conducted PET combined with computed tomography (PET/CT) imaging in healthy rats after tail vein injection of [^18F]3-F-4-AP (0.15–0.30 μCi/g). We chose rats instead of mice because their larger brain size allows better spatial resolution. […] In order to overcome the limited intrinsic resolution of PET, we conducted ex vivo autoradiography in rats injected with [^18F]3-F-4-AP (1–2 μCi/g).
PET/CT imaging studies were carried out on a Trifoil Triumph™ Trimodality Preclinical microPET/SPECT/CT Imaging System (Norridge, CA) equipped with a X-PET detector constructed from BGO crystals. Rats were anesthetized with a mixture of 2% isoflurane and […] and kept under anesthesia throughout the whole procedure. A CT image was acquired first (at 40 kV, 140-uA beam current, and 256 projections, approx. 5 min). After the CT, 50–150 µCi of [^18F]3-F-4-AP was infused as a bolus through a tail vein injection port and a 25, 30 or 90 min list-mode PET scan performed. PET data are acquired using a sensitivity 5.9%, 250- to 750-keV energy window and 12-ns timing window in list-mode format with spatial resolution of 1.6–2.0 mm (FWHM), which can be binned into 3-dimensional (3D) sinograms corresponding to total and true events, respectively. Images were reconstructed using Fourier rebinning followed by a 2-dimensional ordered-subsets expectation maximization algorithm (OSEM) (4 iterations with 15 subsets). Reconstructed images were processed by using VivoQuant (inviCRO, LLC, Boston) version 2.1. Time activity curves were generated by processing the PET data in 5 min frames.

[3] = Parallel artificial membrane permeability assay (PAMPA); details: for Papp: PAMPA
[4] = tested on: K^+ channels in explanted mouse optic nerves; assay: Compound action potential (CAP) of dissected mouse optic nerves; details: for EC50: increase of maximum CAP amplitude, dysmyelinated (Shiverer) optic nerves, 22.2 °C, read-out: Half-maximal effective concentration (EC50)
Experimental: Therefore, we tested the effects of these compounds on the compound action potential (CAP) of dysmyelinated optic nerves from control and Shiverer mice (Fig. 2E).
Optic nerves were dissected from 12–16 week old Shiverer (Mbp^shi/shi) and control mice (Mbp^+/shi and Mbp^+/+). Compound action potentials (CAP) were recorded using suction electrodes as described by Stys et al.[91]. See SI for additional details.
(§1) CI95 = [Upper Limit. Lower Limit]; where Upper Limit = 10^(logEC50+s.d.) and Lower Limit = 10^(logEC50−s.d.). […]
Dissection of optic nerves: Optic nerves were dissected from 12-16 week old Shiverer (Mbpshi/shi) and control mice (Mbp+/shi and Mbp+/+). Mice were euthanized by CO2 overdose and the optic nerves were quickly dissected between the eyeball and the optic chiasm. The nerves […]
Optic nerve electrophysiology: Compound action potentials (CAP) from dysmyelinated nerves (Shiverer mice, Mbpshi/shi) and myelinated nerves (litermate controls, Mbp+/shi and Mbp+/+) were […]
between two suction electrodes (stimulus and recording electrodes) forming a tight seal on each end. Two additional electrodes were placed in the bath for reference. A supramaximal pulse (250 mV, 20 μs) was applied at the stimulating end of the nerve. The resulting CAP was amplified from the recording electrode using a high impedance low-noise amplifier (EG&G Princeton Applied Research Corporation) sampled at 100 kHz and filtered at 10 kHz. To assess […]
concentrations to the recording chamber after the CAP was allowed to stabilize for 5 min while […]
pulsing repeatedly. After each measurement, the chamber was washed for 5 min (flow 1 […]
mL/min) with oxygenated aCSF. […]
conduction and the temperature was monitored throughout the experiment. CAP recordings were acquired with a SBC6711 board (Innovative Integration) controlled by in-house written software. Analysis of the traces was done using an in-house software. The half-maximal […]
amplitude vs. concentration and fitted to the Hill equation using Origin. […]
Compound action potential of nerve recorded by suction electrode: a theoretical and experimental analysis. […]

[5] = Partition coefficient octanol-water (logD); type: physicochemical
Experimental: The partition coefficient octanol-water at pH 7.4 was measured by adding 0.1 mg of the compound to a 10 mL 50:50 mixture of octanol:PBS. The vial was shaken vigorously followed by 1 min centrifugation at 1,000 g to separate the phases. The drug concentration in each phase of the drug was calculated from the area under the peak on reverse phase HPLC (10 μL sample) using a calibration curve.

[6] = Stability in mouse plasma; details: after 1 h
[7] = target: non-inactivating Shaker channel from D. melanogaster (Drosophila melanogaster, UniProt P08510, DEL6-46); assay: cell-based; details: relative K^+ current at +20 mV, Hill equation fit; read-out: Half-maximal inhibitory concentration (IC50)
Sequence of non-inactivating Shaker channel from D. melanogaster (P08510 other isoform, or with tags, fused parts or gaps DEL6-46): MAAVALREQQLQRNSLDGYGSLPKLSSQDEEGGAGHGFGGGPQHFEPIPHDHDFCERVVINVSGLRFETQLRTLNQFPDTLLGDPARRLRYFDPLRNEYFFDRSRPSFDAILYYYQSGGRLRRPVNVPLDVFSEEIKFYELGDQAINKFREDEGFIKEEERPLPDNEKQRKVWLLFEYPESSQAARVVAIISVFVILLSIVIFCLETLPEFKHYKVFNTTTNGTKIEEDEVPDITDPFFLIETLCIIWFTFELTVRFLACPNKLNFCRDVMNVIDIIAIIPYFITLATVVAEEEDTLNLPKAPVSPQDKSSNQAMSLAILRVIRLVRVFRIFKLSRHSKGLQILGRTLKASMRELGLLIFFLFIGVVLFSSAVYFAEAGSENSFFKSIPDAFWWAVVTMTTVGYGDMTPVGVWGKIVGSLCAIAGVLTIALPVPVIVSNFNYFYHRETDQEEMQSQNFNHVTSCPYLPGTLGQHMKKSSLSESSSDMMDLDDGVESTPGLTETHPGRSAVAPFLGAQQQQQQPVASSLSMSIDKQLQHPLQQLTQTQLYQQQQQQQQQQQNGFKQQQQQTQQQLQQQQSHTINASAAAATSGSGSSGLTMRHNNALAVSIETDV
Experimental: See SI for additional details.
as §1
exchanging the external solution (top and guard chambers) several times. After application, cells were voltage-clamped at least 5 min at 0mV, then voltage-clamped at -80mV for 1-2 min.
K+ currents were generated by applying series of 50 ms pulses from -70 mV to +40 mV in increments of 10 mV. The effect of the drug was assessed by measuring the relative intensity of the K+ current before and after applying varying drug concentration at a constant voltage (typically +20 mV) and at the end of the test-pulse. Data acquisition and analysis of the traces was performed using Gpatch software (Department of Anesthesiology, University of California, […]
Los Angeles). […]

[8] = tested on: C57Bl/6 J mice; assay: In vivo effects (signs of neuroexcitation) after intraperitoneal injection; details: mouse, different doses
Experimental: In this experiment, we injected each drug intraperitoneally at different concentrations into mice and looked for signs of neuroexcitation (Fig. 3B).
10-week-old female C57Bl/6 J mice were given an intraperitoneal injection of the drug under investigation and monitored continuously for 4 h. […] At least 72 h passed between injections to the same mice.

[9] = in vitro; details: mouse
[10] = estimated; cited from earlier work
[11] = mouse, 1 h
[12] = Organ distribution of PET tracer in mice by gamma counting; type: in vivo; details: mouse, 30 min post intravenous injection, n = 4
Experimental: Once we had generated the ^18F-labeled drug, we evaluated the uptake of the tracer in mouse blood, brain, liver and kidneys 30 min and 2 h post intravenous administration using automatic gamma counting. […] The uptake in the brain 30 min post injection was higher than blood (standard uptake value (SUV) = 4.71 ± 0.81 vs. 3.27 ± 0.35, n = 4, P = 0.024) providing a suitable time window to conduct PET imaging studies.
50–60 uCi of the [^18F]3-F-4-AP tracer was injected via tail vein to eight 8-week-old female B6 albino mice. At the specified times, the mice were euthanized by anesthetic overdose. Following euthanasia blood was collected by cardiac puncture and transferred to EDTA coated tubes. Other organs (brain, liver and kidneys) were collected by dissection and transferred to glass tubes. Radioactivity was measured using an automatic gamma counter (^18F protocol) and corrected for organ weight and injected dose. Using the original tracer solution, 8 standard solutions ranging from 20 μCi to 10^−5 μCi were prepared, analyzed by gamma counting and used as a calibration curve to correlate peak area of the samples to concentration. SUV was calculated as SUV = (dose organ/organ weight)/(dose injected/body weight) with dose corrected for decay.

[13] = tested on: voltage-gated K^+ channels; assay: Detection of demyelination by PET in LPC-injected rats; type: in vivo, rat; details: PET 0-25 min
Experimental: After conducting PET imaging with [^18F]3-F-4-AP in healthy rats, we sought to evaluate the capability of this tracer to detect demyelination using the LPC-injection model. The main advantages of this model are that the localization of the lesion is known, that the time course of demyelination is well established, that there is no inflammation or disruption of the BBB, and that the signal in the lesioned area can be directly compared to the contralateral control area[69]. […] Rats were injected with 3 μL of saline (control group) or 1% LPC in saline (demyelination group) on the right side of the cerebellum, targeting the cerebellar white matter. Seven days post injection, which corresponds to the peak of demyelination, the animals were scanned using PET (0–25 min). Several hours after the PET scan, the animals were reinjected with [^18F]3F4AP and their brains studied by ex vivo autoradiography as previously described. Finally, following autoradiography the same tissue sections were stained with LFB. To analyze the data, we placed a spherical voxel of ~1.5 mm radius centered at the injection coordinates and compared the signal in this region with that of an equal size region at the contralateral hemisphere (Fig. 6A). […] Furthermore, there was excellent correlation between PET, ex vivo autoradiography and histological staining for myelin (Fig. 6C). For one animal, we performed serial autoradiography and staining throughout the whole cerebellum (Sup. Fig. 2). As shown in this figure, it is possible to clearly delineate where the lesion starts and finishes based on the autoradiographic signal.
A power analysis (power 0.8, α = 0.05) based on the autoradiography results was used to determine the number of rats needed to detect a statistically significant change in signal. Randomly selected rats were injected with lysolecithin or saline intracranially as described above. 0–25 min dynamic PET scan was performed 6–8 days post intracranial injection (peak of demyelination) after administration of 0.3–0.5 μCi/g. Within 24 h of the PET scan, the rats received a second dose of tracer (1–2 uCi/g), the animals were sacrificed 25 min post injection and their brains processed for autoradiography as described above. Image analyst was not blind to the treatment group. Post autoradiography, LFB staining was performed to assess demyelination. Animals showing physical damage to the brain due to the injection were excluded from the study. Brain ROI analysis was performed using reference atlas with VivoQuant version 2.1 (inviCRO, LLC, Boston).

[14] = LPC-injected rats, 7 days post injection, n = 4
[15] = saline (vehicle only)-injected rats, n = 3

Nc1ccncc1F [3-F-4-AP, 3-fluoro-4-aminopyridine]
effect of cold drug (self-block) on brain signal ([1]; Rhesus macaques, 0.1 mg/kg): no changes in brain signal or time activity curves were detected
estimated seizure dose in monkeys ([1]; estimated based on the rodent data): 1.5 to 3.0 mg/kg
effect of high doses of non-radiolabeled drug (self-block) ([2]; rats): caused the breathing rate to increase dramatically, possibly due to seizures
Papp [3]: 1.56 ± 0.06 ×10⁻⁶ cm/s
times more permeable than 4-AP ([3]; ratio of Pe): 6.6 times
EC50 [4]: 96 µM
logD ([5]; pH 7.4, pH 7.4, n = 3, read-out: logD: experimental partition coefficient octanol:water): 0.63
remaining in plasma [6]: > 90%
IC50 [7]: 250 µM
signs of neuroexcitation, summary in words relative to 4-AP [8]: active at the same concentration as 4-AP and to act faster
half-life ([9]; microsomes): 2.4 ± 0.183 h

Nc1ccncc1 [4-AP, 4-aminopyridine]
Papp [3]: 0.236 ± 0.003 ×10⁻⁶ cm/s
concentration in the cerebrospinal fluid of patients taking the drug [10]: around 50 nM
increases of the CAP amplitude ([4]; dysmyelinated nerves): 2–4 fold
EC50 [4]: 59.2 µM
increases in amplitude and duration of the action potential ([4]; normally myelinated nerves): < 5%
logD: experimental partition coefficient octanol:water ([5]; pH 7.4): 0.21
logD ([5]; pH 7.4, logD: experimental partition coefficient octanol:water): 0.23
remaining in plasma [11]: > 90%
half-life ([9]; liver microsomes): 0.883 ± 0.167 h

Nc1ccncc1[18F] [[^18F]3-F-4-AP]
peak SUV in selected brain regions ([1]; Rhesus macaques): 3.2–5.5
time of peak SUV in selected brain regions ([1]; Rhesus macaques): 2 to 5 min
peak SUV for the whole brain ([1]; Rhesus macaques, within the first five minutes): around 4
defluorination in vivo ([1]; Rhesus macaques, lack of bone uptake): not defluorinated in vivo
time of peak in brain time-activity curve ([2]; healthy rats, 0-90 min scan): ≤ 5 min
SUV in cerebellum ([2]; healthy rats, 0 to 30 min): 2.09 ± 0.44
SUV in cortex ([2]; healthy rats, 0 to 30 min): 3.24 ± 0.70
mean SUV for the whole brain ([2]; healthy rats, 0 to 30 min, n = 3): 2.91 ± 0.65
defluorination in vivo ([2]; rats, no radioactivity in skull, teeth or bone): does not undergo defluorination in vivo
standard uptake value (SUV) in blood [12]: 3.27 ± 0.35
standard uptake value (SUV) in brain [12]: 4.71 ± 0.81
SUV, control side of cerebellum [13, 14]: 2.60 ± 0.21
SUV, injected side of cerebellum [13, 14]: 3.54 ± 0.53
SUV, control side of cerebellum [13, 15]: 2.67 ± 0.77
SUV, injected side of cerebellum [13, 15]: 2.59 ± 0.78
